According to patent US7994219B2, “Approach to anti-microbial host defense with molecular shields with lipoxin compounds” (The Brigham and Women's Hospital, Inc., priority 2001, dated 2011):

Key:
[1] = tested on: BPI; assay: Confocal microscopy of surface BPI on non-permeabilized Caco2 cells; assay type: cell-based, human; settings: 1 μM for 24 hr
Experimental: OKF6 or Caco2 cells were grown to confluence on acid washed 12 mm glass coverslips. Monolayers were exposed to indicated experimental conditions, washed once in phosphate buffered saline, and fixed for 10 minutes at room temperature in 1% paraformaldehyde in cacodylate buffer (0.1M sodium cacodylate; pH 7.4, 0.72% sucrose). After washing twice with PBS, the cells were incubated for 1 hour with rabbit polyclonal BPI antisera (1:300 dilution) or control sera (equivalent dilution depleted of specific antibody through 3 consecutive adsorptions with sepharose beads covalently linked to rBPI via cyanogens bromide coupling, kit from Pierce Chemical Co., Rockford, Ill.). After washing, the monolayers were incubated with goat anti-rabbit Oregon Green (1 μg/ml, Molecular Probes, Eugene, Oreg.). Cells were imaged on a BioRad MRC-600 confocal fluorescence microscope.

[2] = tested on: BPI; assay: Semi-quantitative RT-PCR of BPI transcript in KB cells; assay type: cell-based, human
[3] = tested on: BPI; assay: RT-PCR of BPI transcript in OKF6, T84 and Caco2 epithelial cells; assay type: cell-based, human
[4] = tested on: BPI; assay: Immunoprecipitation of biotinylated plasma membrane protein and avidin blot for surface BPI in T84 cells; assay type: cell-based, human; settings: 1 μM ATLa, at 36 h
Experimental: Epithelial cells were grown to confluence on 45 cm^2 permeable supports, and exposed to ATLa or vehicle (0.01% EtOH), as indicated. Cells were washed extensively in HBSS, cooled to 4° C., and extracellular proteins were biotinylated (1 mM NHS-biotin (Pierce Chemical Co., Rockford, Ill.) in HBSS) as previously described (18). Plasma membranes were isolated using nitrogen cavitation (200 psi, 8 min., 4° C.) as previously described (18). Recombinant human BPI (100 ng/ml, was directly biotinylated and excess biotin was removed by multiple washes on a 5 kD cut-off membrane filter (Amicon, Beverly Mass.). Fractions were pre-cleared with 50 μl pre-equilibrated protein-G sepharose (Pharmacia, Uppsala Sweden). Immunoprecipitation of BPI was performed with goat polyclonal anti-BPI followed by addition of 50 μl pre-equilibrated protein-G sepharose and overnight incubation. Washed immunoprecipitates were boiled in non-reducing sample buffer (2.5% SDS, 0.38 M Tris pH 6.8, 20% glycerol, and 0.1% bromophenol blue), resolved by non-reducing SDS-PAGE (18% polyacrylamide gel), transferred to nitrocellulose, and blocked overnight in blocking buffer. Biotinylated proteins were labeled with streptavidin-peroxidase (Pierce Chemical Co., Rockford, Ill.) and visualized by enhanced chemiluminescence (ECL; Amersham, Arlington Heights, Ill.).

[5] = tested on: BPI; assay: Quantitative genechip microarray transcriptional profile of KB epithelial cells exposed to ATLa; assay type: cell-based, human; settings: 1 μM ATLa
[6] = tested on: Salmonella typhimurium; assay: Bacterial killing assay: adherent Caco2 cells with Salmonella typhimurium (CFU); assay type: cell-based; settings: Caco2 pre-exposure to 1 μM ATLa, 24 hr; killing over 60 min
Experimental: Salmonella typhimurium (strain 14028 from American Type Culture Collection, Rockville, Md.) were cultured and grown in Luria broth as previously described (22). In subsets of experiments, Enterococcus faecalis (strain PCI 1326 from American Type Culture Collection, Rockville, Md.) were cultured as previously described (23). Caco2 epithelial cells were grown to confluence of 60 mm petri dishes and exposed to indicated experimental conditions. Cells were washed once with HBSS, and washed bacteria were added to epithelial monolayers at a ratio of 50 bacteria per adherent epithelial cell. Incubations were allowed to proceed for 90 minutes or as indicated on a rotating platform. Parallel samples omitting epithelial cells were used as controls. Following incubation, supernatants were collected and epithelial cells were hypotonically lysed with 1 ml ice cold water. Bacteria were pelleted, dilutions of both pellets and supernatants were plated, incubated overnight at 37° C., and colony counts were performed. In subsets of experiments, anti-BPI antisera (1:300 in HBSS) or anti-BPI antisera pre-adsorbed with rBPI (1:300 in HBSS), as indicated, were added 30 minutes prior to incubation with bacteria. Data are presented as the mean±S.E.M. CFU.

[7] = tested on: bacteria; assay: Direct incubation of ATLa or anti-BPI with bacteria and colony counts; assay type: cell-based; settings: direct incubation with bacteria, no epithelial cells; data not shown

O=C(O)CCC[C@H](O)[C@H](O)/C=C/C=C/C=C\C=C\[C@@H](O)COc1ccc(F)cc1 [ATLa, 15-epi-16-(para-fluoro)-phenoxy-LXA4]
surface-bound BPI expression [1]: increased expression
maximal increase of BPI transcript relative to β-actin by densitometry ([2]; KB cells, 1 μM, 8 h, compared to vehicle control): 4.3 fold
EC50 ([2]; KB cells, 8 hr, 28 cycles of PCR, approximate, read-out: EC50 of BPI transcript induction (dose response)): ~0.05 µM
BPI induction relative to β-actin ([3]; OKF6, T84 and Caco2 cells, 1 μM, 26 cycles of PCR): prominent pattern of time-dependent BPI induction
maximal increase of ~55 kDa surface protein consistent with BPI by densitometry [4]: 12.5 fold
BPI mRNA increase over control (microarray) ([5]; 4 hrs exposure): 3.2 fold
BPI mRNA increase over control (microarray) ([5]; 8 hrs exposure): 2.9 fold
increase in killing of S. typhimurium [6]: ~60%
direct bactericidal activity or non-specific agglutination [7]: not explained by bactericidal activity or non-specific agglutination

pertussis toxin [reference compound]
decrease in BPI induction by ATLa ([3]; Caco2 pre-exposure to pertussis toxin 1 μM, 30 min, ATLa 1 μM, 18 h): 65%

CCCCCC/C=C/C=C/C=C/C=C/[C@@H](O)[C@@H](O)CCCC(=O)O [15-deoxy-LXA4, reference compound]
induction of BPI at the mRNA level ([2]; epithelial exposure to similar concentrations as ATLa, data not shown): no induction
